From patent US4170647A, “Method for the control of Arizona hinshawii in poultry with an alkylated BM123γ-type antibiotic” (American Cyanamid Company, priority 1978, dated 1979)

Test system: Arizona hinshawii
Assay: In vitro activity against six strains of Arizona hinshawii (minimum inhibitory concentration, broth dilution)
Format: cell-based
Settings: trypticase soy broth, 24 hours at 37° C.
Experimental: Serial, two-fold dilutions of drugs are prepared in trypticase soy broth (TSB). To each tube containing 5 ml of broth is added 0.1 ml of a 10^-3 dilution of bacterial inoculum (six strains of Arizona hinshawii, originally isolated from clinical cases of Arizonosis of turkeys), adjusted prior to dilution to 44% transmission at 645 mμ. An inoculated broth, containing no drug is included as growth control for each strain tested. The minimum inhibitory conentration (MIC) is read as the highest dilution of drug showing no visble growth after 24 hours incubation at 37° C.

Measured: Minimum Inhibitory Concentration

Gentamicin
2 µg/mL: Isolate Number 1 | Isolate Number 2 | Isolate Number 3 | Isolate Number 4 | Isolate Number 5 | Isolate Number 6
